“And” between values parts separate entries of the source, which are not always exact repeats. Equal values may be shown once. Toxic doses and inconclusive results are not listed.
Test system: BDF1 mice, P388 leukemia ip, median survival T/C
Assay: NCI In Vivo Anticancer Drug Screen. Data for tumor model P388 Leukemia (intraperitoneal) in B6D2F1 (BDF1) mice
Conditions: endpoint: median survival time, higher = longer survival
Method in brief: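 Reported as T/C, where T is the survival measurement in dosed animals and C the same measurement in vehicle controls.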

In the case of CC(C)[C@](O)(C(=O)OCC1=CC[N+]2([O-])CC[C@@H](O)[C@@H]12)[C@H](C)O (stereo partly drawn), the T/C (dose: 6.2 mg/kg/injection, schedule: Q01DX009 (ip), vehicle: water) is reported as 113 % of control, the T/C (dose: 8.0 mg/kg/injection, schedule: Q03HX024 (ip), vehicle: water) is reported as 100 % of control and the T/C (dose: 16.0 mg/kg/injection, schedule: Q03HX008 (ip), vehicle: saline) is reported as 100 % of control. The T/C (dose: 16.0 mg/kg/injection, schedule: Q03HX008 (ip), vehicle: water) was 95 % of control, the T/C (dose: 16.0 mg/kg/injection, schedule: Q03HX016 (ip), vehicle: saline) was 90 % of control and the T/C (dose: 16.0 mg/kg/injection, schedule: Q03HX016 (ip), vehicle: water) was 100 % of control. The T/C (dose: 16.0 mg/kg/injection, schedule: Q03HX024 (ip), vehicle: saline) was 90 % of control, the T/C (dose: 16.0 mg/kg/injection, schedule: Q03HX024 (ip), vehicle: water) was 90 % of control and the T/C (dose: 25.0 mg/kg/injection, schedule: Q01DX009 (ip), vehicle: saline) was 110 % of control. The T/C (dose: 25.0 mg/kg/injection, schedule: Q01DX009 (ip), vehicle: water) was 118 % of control, the T/C (dose: 32.0 mg/kg/injection, schedule: Q03HX008 (ip), vehicle: saline) was 105 % of control and the T/C (dose: 32.0 mg/kg/injection, schedule: Q03HX008 (ip), vehicle: water) was 100 % of control. For the same compound, the T/C (dose: 32.0 mg/kg/injection, schedule: Q03HX016 (ip), vehicle: saline) was 100 % of control, the T/C (dose: 32.0 mg/kg/injection, schedule: Q03HX016 (ip), vehicle: water) was 100 % of control and the T/C (dose: 32.0 mg/kg/injection, schedule: Q03HX024 (ip), vehicle: saline) was 100 % of control. For the same compound, the T/C (dose: 32.0 mg/kg/injection, schedule: Q03HX024 (ip), vehicle: water) was 100 % of control, the T/C (dose: 64.0 mg/kg/injection, schedule: Q01DX009 (ip), vehicle: saline) was 105 % of control and the T/C (dose: 64.0 mg/kg/injection, schedule: Q03HX008 (ip), vehicle: saline) was 100 % of control. The T/C (dose: 64.0 mg/kg/injection, schedule: Q03HX008 (ip), vehicle: water) was 100 % of control, the T/C (dose: 64.0 mg/kg/injection, schedule: Q03HX016 (ip), vehicle: saline) was 105 % of control and the T/C (dose: 64.0 mg/kg/injection, schedule: Q03HX016 (ip), vehicle: water) was 100 % of control. The T/C (dose: 64.0 mg/kg/injection, schedule: Q03HX024 (ip), vehicle: saline) was 105 % of control, the T/C (dose: 64.0 mg/kg/injection, schedule: Q03HX024 (ip), vehicle: water) was 95 % of control and the T/C (dose: 64.0 mg/kg/injection, schedule: Q04DX003 (ip), vehicle: water) was 100 % of control. The T/C (dose: 100.0 mg/kg/injection, schedule: Q04DX002 (ip), vehicle: saline) was 108 % of control, the T/C (dose: 128.0 mg/kg/injection, schedule: Q01DX001 (ip), vehicle: saline) was 95 % of control and the T/C (dose: 128.0 mg/kg/injection, schedule: Q01DX009 (ip), vehicle: saline) was 89 % of control. For the same compound, the T/C (dose: 128.0 mg/kg/injection, schedule: Q01DX009 (sc), vehicle: water) was 95 % of control, the T/C (dose: 128.0 mg/kg/injection, schedule: Q03HX008 (ip), vehicle: saline) was 95 % of control and the T/C (dose: 128.0 mg/kg/injection, schedule: Q03HX016 (ip), vehicle: saline) was 100 % of control. The T/C (dose: 128.0 mg/kg/injection, schedule: Q03HX016 (ip), vehicle: water) was 100 % of control, the T/C (dose: 128.0 mg/kg/injection, schedule: Q03HX024 (ip), vehicle: saline) was 105 % of control and the T/C (dose: 128.0 mg/kg/injection, schedule: Q03HX024 (ip), vehicle: water) was 100 % of control. The T/C (dose: 128.0 mg/kg/injection, schedule: Q04DX003 (ip), vehicle: saline) was 95 % of control, the T/C (dose: 128.0 mg/kg/injection, schedule: Q04DX003 (ip), vehicle: water) was 100 % of control and the T/C (dose: 128.0 mg/kg/injection, schedule: Q08DX002 (ip), vehicle: saline) was 90 % of control. The T/C (dose: 200.0 mg/kg/injection, schedule: Q01DX001 (ip), vehicle: saline) was 95 % of control, the T/C (dose: 200.0 mg/kg/injection, schedule: Q01DX009 (ip), vehicle: other) was 157 % of control and the T/C (dose: 200.0 mg/kg/injection, schedule: Q04DX002 (ip), vehicle: saline) was 100 % of control. For the same compound, the T/C (dose: 250.0 mg/kg/injection, schedule: Q04DX003 (ip), vehicle: water) was 154 % of control, the T/C (dose: 256.0 mg/kg/injection, schedule: Q01DX001 (ip), vehicle: saline) was 90 % of control and the T/C (dose: 256.0 mg/kg/injection, schedule: Q01DX001 (ip), vehicle: water) was 118 % of control. For the same compound, the T/C (dose: 256.0 mg/kg/injection, schedule: Q01DX009 (ip), vehicle: saline) was 96 % of control, the T/C (dose: 256.0 mg/kg/injection, schedule: Q01DX009 (ip), vehicle: water) was 154 % of control and the T/C (dose: 256.0 mg/kg/injection, schedule: Q01DX009 (oral), vehicle: water) was 90 % of control. The T/C (dose: 256.0 mg/kg/injection, schedule: Q01DX009 (sc), vehicle: water) was 100 % of control, the T/C (dose: 256.0 mg/kg/injection, schedule: Q03HX008 (ip), vehicle: saline) was 120 % of control and the T/C (dose: 256.0 mg/kg/injection, schedule: Q03HX016 (ip), vehicle: saline) was 105 % of control. For the same compound, the T/C (dose: 256.0 mg/kg/injection, schedule: Q03HX024 (ip), vehicle: saline) was 95 % of control, the T/C (dose: 256.0 mg/kg/injection, schedule: Q04DX003 (ip), vehicle: saline) was 100 % of control and the T/C (dose: 256.0 mg/kg/injection, schedule: Q04DX003 (ip), vehicle: water) was 104 % of control. The T/C (dose: 288.0 mg/kg/injection, schedule: Q01DX009 (ip), vehicle: water) was 159 % of control, the T/C (dose: 360.0 mg/kg/injection, schedule: Q01DX009 (ip), vehicle: water) was 175 % of control and the T/C (dose: 400.0 mg/kg/injection, schedule: Q01DX009 (ip), vehicle: other) was 105 % of control. For the same compound, the T/C (dose: 500.0 mg/kg/injection, schedule: Q01DX001 (ip), vehicle: water) was 154 % of control, the T/C (dose: 500.0 mg/kg/injection, schedule: Q04DX003 (ip), vehicle: water) was 172 % of control and the T/C (dose: 500.0 mg/kg/injection, schedule: Q08DX002 (ip), vehicle: water) was 163 % of control. The T/C (dose: 512.0 mg/kg/injection, schedule: Q01DX001 (ip), vehicle: saline) was 100 % of control, the T/C (dose: 512.0 mg/kg/injection, schedule: Q01DX001 (ip), vehicle: water) was 118 % of control and the T/C (dose: 512.0 mg/kg/injection, schedule: Q01DX009 (ip), vehicle: saline) was 100 % of control. For the same compound, the T/C (dose: 512.0 mg/kg/injection, schedule: Q01DX009 (ip), vehicle: water) was 172 % of control, the T/C (dose: 512.0 mg/kg/injection, schedule: Q01DX009 (oral), vehicle: water) was 95 % of control and the T/C (dose: 512.0 mg/kg/injection, schedule: Q01DX009 (sc), vehicle: water) was 90 % of control. The T/C (dose: 512.0 mg/kg/injection, schedule: Q04DX003 (ip), vehicle: saline) was 90 % of control, the T/C (dose: 512.0 mg/kg/injection, schedule: Q04DX003 (ip), vehicle: water) was 100 % of control and the T/C (dose: 600.0 mg/kg/injection, schedule: Q01DX009 (ip), vehicle: water) was 163 % of control and 169 % of control. The T/C (dose: 750.0 mg/kg/injection, schedule: Q01DX005 (ip), vehicle: water) was 100 % of control, the T/C (dose: 800.0 mg/kg/injection, schedule: Q01DX001 (ip), vehicle: saline) was 108 % of control and the T/C (dose: 800.0 mg/kg/injection, schedule: Q01DX009 (ip), vehicle: other) was 99 % of control. For the same compound, the T/C (dose: 1000.0 mg/kg/injection, schedule: Q01DX001 (ip), vehicle: water) was 154 % of control, the T/C (dose: 1000.0 mg/kg/injection, schedule: Q04DX003 (ip), vehicle: water) was 195 % of control and the T/C (dose: 1000.0 mg/kg/injection, schedule: Q08DX002 (ip), vehicle: water) was 177 % of control. The T/C (dose: 1024.0 mg/kg/injection, schedule: Q01DX001 (ip), vehicle: saline) was 100 % of control, the T/C (dose: 1024.0 mg/kg/injection, schedule: Q01DX001 (ip), vehicle: water) was 95 % of control and the T/C (dose: 1024.0 mg/kg/injection, schedule: Q01DX009 (ip), vehicle: saline) was 160 % of control. For the same compound, the T/C (dose: 1024.0 mg/kg/injection, schedule: Q01DX009 (oral), vehicle: water) was 90 % of control, the T/C (dose: 1024.0 mg/kg/injection, schedule: Q01DX009 (sc), vehicle: water) was 90 % of control and the T/C (dose: 1024.0 mg/kg/injection, schedule: Q04DX003 (ip), vehicle: saline) was 110 % of control. For the same compound, the T/C (dose: 1024.0 mg/kg/injection, schedule: Q04DX003 (ip), vehicle: water) was 100 % of control, the T/C (dose: 1024.0 mg/kg/injection, schedule: Q08DX002 (ip), vehicle: saline) was 100 % of control and the T/C (dose: 1024.0 mg/kg/injection, schedule: Q08DX002 (ip), vehicle: water) was 95 % of control. For the same compound, the T/C (dose: 1500.0 mg/kg/injection, schedule: Q01DX001 (ip), vehicle: water) was 163 % of control, the T/C (dose: 1500.0 mg/kg/injection, schedule: Q08DX002 (ip), vehicle: water) was 181 % of control and the T/C (dose: 2048.0 mg/kg/injection, schedule: Q01DX001 (ip), vehicle: saline) was 120 % of control. For the same compound, the T/C (dose: 2048.0 mg/kg/injection, schedule: Q01DX001 (ip), vehicle: water) was 113 % of control, the T/C (dose: 2048.0 mg/kg/injection, schedule: Q01DX009 (oral), vehicle: water) was 90 % of control and the T/C (dose: 2048.0 mg/kg/injection, schedule: Q08DX002 (ip), vehicle: saline) was 105 % of control. The T/C (dose: 2048.0 mg/kg/injection, schedule: Q08DX002 (ip), vehicle: water) was 118 % of control.

From PubChem BioAssay AID328 (DTP/NCI, 2004)
